Data taken from paper PMC8692984 (Frontiers in Pharmacology, 2021).
Several values for one entry are separate records, joined by “and”; a condition that tells them apart may be missing. Equal entries are not always repeated. Bridge positions count the residues as written; N and C are the ends. Peptide text beside a SMILES is read from it.

Key:
α7 nAChRs [1] = target: T1, α7 nAChRs (Homo sapiens, UniProt P36544)
α7 nAChRs [2] = target: T1, α7 nAChRs; remark: listed apart in the source
Ls-AChBP = Ls-AChBP (Lymnaea stagnalis, UniProt P58154); test: biochemical; conditions: SEM
Chain of Ls-AChBP (P58154 20-229 limits assumed): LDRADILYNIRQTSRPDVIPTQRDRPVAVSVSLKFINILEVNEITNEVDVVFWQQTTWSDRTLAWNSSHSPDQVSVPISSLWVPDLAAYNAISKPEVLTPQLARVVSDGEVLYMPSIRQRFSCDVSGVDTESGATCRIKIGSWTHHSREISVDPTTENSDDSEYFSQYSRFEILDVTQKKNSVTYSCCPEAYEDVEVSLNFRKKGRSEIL

T1 sequence (P36544 23-502): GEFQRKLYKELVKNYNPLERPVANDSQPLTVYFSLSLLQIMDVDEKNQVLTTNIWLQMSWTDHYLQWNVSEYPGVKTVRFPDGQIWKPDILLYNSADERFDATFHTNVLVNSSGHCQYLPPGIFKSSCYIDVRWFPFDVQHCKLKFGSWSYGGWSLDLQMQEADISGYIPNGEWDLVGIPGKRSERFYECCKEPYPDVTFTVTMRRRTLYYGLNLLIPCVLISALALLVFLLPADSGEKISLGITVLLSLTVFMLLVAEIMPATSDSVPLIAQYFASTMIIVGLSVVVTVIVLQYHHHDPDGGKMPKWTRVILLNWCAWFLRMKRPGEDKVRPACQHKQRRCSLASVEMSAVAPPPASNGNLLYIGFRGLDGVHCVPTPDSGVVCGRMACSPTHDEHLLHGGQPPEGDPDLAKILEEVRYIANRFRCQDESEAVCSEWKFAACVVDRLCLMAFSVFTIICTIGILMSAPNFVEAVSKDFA

SMILES	extent of inhibition of α7 nAChR responses to choline (α7 nAChRs [1]) [%]	residual response at TQS-α7 nAChRs (α7 nAChRs [2]) [%]	IC50 (Ls-AChBP) [nM]	further results
CC[C@H](C)[C@@H]1NC(=O)[C@H](Cc2c[nH]cn2)NC(=O)[C@@H]2CCCN2C(=O)[C@H](CC(N)=O)NC(=O)[C@H](CC(N)=O)NC(=O)[C@H](C(C)C)NC(=O)[C@H](CC(N)=O)NC(=O)[C@@H]2CSSC[C@H](NC(=O)CN)C(=O)N[C@@H](CSSC[C@@H](C(=O)NCC(N)=O)NC1=O)C(=O)N[C@@H](CO)C(=O)N[C@@H](Cc1c[nH]cn1)C(=O)N1CCC[C@H]1C(=O)N[C@@H](C)C(=O)N2 [OmIA] (H-GCCSHPACNVNNPHICG-NH2; disulfide 2-8, 3-16)	~50	~15		
CC[C@H](C)[C@@H]1NC(=O)[C@H](Cc2cnc[nH]2)NC(=O)[C@@H]2CCCN2C(=O)[C@H](CC(N)=O)NC(=O)[C@H](CC(N)=O)NC(=O)[C@H](C(C)C)NC(=O)[C@H](CC(N)=O)NC(=O)[C@@H]2CSSC[C@H](NC(=O)CN)C(=O)N[C@@H](CSSC[C@@H](C(=O)NCC(N)=O)NC1=O)C(=O)N[C@@H](CO)C(=O)N[C@@H](Cc1cnc[nH]1)C(=O)N1CCC[C@H]1C(=O)N[C@@H](C)C(=O)N2 [OmIA] (H-GCCSHPACNVNNPHICG-NH2; disulfide 2-8, 3-16)			280 ± 70	
CC[C@H](C)[C@@H]1NC(=O)[C@H](Cc2c[nH]cn2)NC(=O)[C@@H]2CCCN2C(=O)[C@H](CC(N)=O)NC(=O)[C@H](CC(N)=O)NC(=O)[C@H](C(C)C)NC(=O)[C@H](Cc2c[nH]cn2)NC(=O)[C@@H]2CSSC[C@H](NC(=O)CN)C(=O)N[C@@H](CSSC[C@@H](C(=O)NCC(N)=O)NC1=O)C(=O)N[C@@H](CO)C(=O)N[C@@H](Cc1c[nH]cn1)C(=O)N1CCC[C@H]1C(=O)N[C@@H](C)C(=O)N2 [[N9H]OmIA] (H-GCCSHPACHVNNPHICG-NH2; disulfide 2-8, 3-16)	~50	~15	730 ± 50	
CC[C@H](C)[C@@H]1NC(=O)[C@H](Cc2c[nH]cn2)NC(=O)[C@@H]2CCCN2C(=O)[C@H](CC(N)=O)NC(=O)[C@H](CC(N)=O)NC(=O)[C@H](C)NC(=O)[C@H](CC(N)=O)NC(=O)[C@@H]2CSSC[C@H](NC(=O)CN)C(=O)N[C@@H](CSSC[C@@H](C(=O)NCC(N)=O)NC1=O)C(=O)N[C@@H](CO)C(=O)N[C@@H](Cc1c[nH]cn1)C(=O)N1CCC[C@H]1C(=O)N[C@@H](C)C(=O)N2 [[V10A]OmIA] (H-GCCSHPACNANNPHICG-NH2; disulfide 2-8, 3-16)				Choline EC50 ± SEM at PNU120596-α7 nAChRs in the presence of peptide (α7 nAChRs [1]): 7 ± 1.20 and 8 ± 0.47 and 11 ± 1.20; mode of antagonism at PNU120596-α7 nAChRs (α7 nAChRs [1]): fully insurmountable antagonism; Fraction 2 ± SEM at PNU120596-modified α7 nAChRs (α7 nAChRs [1]; SEM): 0.58 ± 0.04 and 0.57 ± 0.11 and 0.37 ± 0.04; Choline EC50 ± SEM at TQS-α7 nAChRs in the presence of peptide (α7 nAChRs [2]): 3 ± 0.20 and 4 ± 1.00 and 5 ± 0.48
CC[C@H](C)[C@@H]1NC(=O)[C@H](Cc2c[nH]cn2)NC(=O)[C@@H]2CCCN2C(=O)[C@H](CC(N)=O)NC(=O)[C@H](CC(N)=O)NC(=O)[C@H](CC(C)C)NC(=O)[C@H](CC(N)=O)NC(=O)[C@@H]2CSSC[C@H](NC(=O)CN)C(=O)N[C@@H](CSSC[C@@H](C(=O)NCC(N)=O)NC1=O)C(=O)N[C@@H](CO)C(=O)N[C@@H](Cc1c[nH]cn1)C(=O)N1CCC[C@H]1C(=O)N[C@@H](C)C(=O)N2 [[V10L]OmIA] (H-GCCSHPACNLNNPHICG-NH2; disulfide 2-8, 3-16)			680 ± 130	increase of OmIA IC50 at TQS-α7 nAChRs (α7 nAChRs [2]): 10 fold
CC[C@H](C)[C@@H]1NC(=O)[C@H](Cc2c[nH]cn2)NC(=O)[C@@H]2CCCN2C(=O)[C@H](CC(N)=O)NC(=O)[C@H](CC(N)=O)NC(=O)[C@H]([C@@H](C)O)NC(=O)[C@H](CC(N)=O)NC(=O)[C@@H]2CSSC[C@H](NC(=O)CN)C(=O)N[C@@H](CSSC[C@@H](C(=O)NCC(N)=O)NC1=O)C(=O)N[C@@H](CO)C(=O)N[C@@H](Cc1c[nH]cn1)C(=O)N1CCC[C@H]1C(=O)N[C@@H](C)C(=O)N2 [[V10T]OmIA] (H-GCCSHPACNTNNPHICG-NH2; disulfide 2-8, 3-16)			1000 ± 50	residual response at PNU120596-α7 nAChRs (α7 nAChRs [1]): 60%
